Assay results published in the NIST ThermoML archive (doi:10.1021/je2001649).
± gives the expanded uncertainty stated by the source.

Details: Crystal; visual observation

c1ccc2c(c1)Nc1ccccc1S2 [10H-phenothiazine]
Normal melting temperature: 183 ± 1 °C
